The text below walks through data of PubChem BioAssay (NCI).

Structures are written as SMILES.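 Results reflect a 48-hour exposure of cells in 96-well plates to compound at five concentrations. Here, GI50 denotes the concentration required for 50% inhibition of growth. The concentration for full growth arrest is given as TGI.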

Among the test systems are RXF 393 renal; U251 CNS; NCI-H226 lung; A549 NSCLC; NCI/ADR-RES ovarian; HCT-15 colon; T-47D breast; OVCAR-4 ovarian; MDA-MB-231 breast; MALME-3M melanoma.
What all share (experiment): NCI anticancer screen, dose series, 48 h

Take `OC1CCCC2CCC[N-]C12.OC1CCCC2CCC[N-]C12.[O]=[V][OH]` (stereo not given): the GI50 in the experiment with RXF 393 renal is 15.6 µM; with U251 CNS it was 1.87 µM; with NCI-H226 lung, 42 µM; in the experiment on A549 NSCLC, 5.23 µM; in the experiment with NCI/ADR-RES ovarian, 2.82 µM; with HCT-15 colon, 0.789 µM. The GI50 with T-47D breast is 0.825 µM; with OVCAR-4 ovarian it was 3.05 µM; in the experiment with MDA-MB-231 breast, 3.55 µM; in the experiment with MALME-3M melanoma, 5.03 µM. Besides, the TGI with RXF 393 renal was 35.4 µM; in the experiment on U251 CNS, 5.72 µM; with NCI-H226 lung it was > 100 µM; with A549 NSCLC, > 100 µM; in the experiment on NCI/ADR-RES ovarian, 15.1 µM; in the experiment with HCT-15 colon, 12.5 µM. Besides, the TGI in the experiment on T-47D breast was 26.6 µM; in the experiment on OVCAR-4 ovarian, > 100 µM; with MDA-MB-231 breast it was 16.5 µM; in the experiment on MALME-3M melanoma, > 100 µM.
Take `CCC(=O)N1C/C(=C/c2ccc(Br)cc2)C(=O)/C(=C/c2ccc(Br)cc2)C1`: the GI50 was 0.22 µM with RXF 393 renal; 0.24 µM with U251 CNS; 1.13 µM with NCI-H226 lung; 0.745 µM with A549 NSCLC; 1.36 µM in the experiment with NCI/ADR-RES ovarian; 0.295 µM in the experiment on HCT-15 colon. The GI50 is 0.673 µM in the experiment on T-47D breast, 1.01 µM in the experiment with OVCAR-4 ovarian, 0.76 µM in the experiment on MDA-MB-231 breast and 1.69 µM with MALME-3M melanoma. Besides, the TGI in the experiment with RXF 393 renal came out at 0.522 µM; in the experiment on U251 CNS, 0.763 µM; in the experiment with NCI-H226 lung it was 4.38 µM; in the experiment with A549 NSCLC, 10.8 µM; in the experiment on NCI/ADR-RES ovarian it was 32.8 µM; in the experiment with HCT-15 colon it was 1.31 µM. In addition, the TGI in the experiment with T-47D breast turned out to be 2.54 µM; with OVCAR-4 ovarian, 3.75 µM; in the experiment on MDA-MB-231 breast it was 2.36 µM; in the experiment with MALME-3M melanoma it was 3.63 µM.
As for `O=C1Nc2ccccc2/C1=C\c1nc(-c2ccccc2F)n2ccccc12`, the GI50 in the experiment with RXF 393 renal is 3.14 µM; with U251 CNS, 2.57 µM; in the experiment with NCI-H226 lung, 4.78 µM; in the experiment with A549 NSCLC, 3.46 µM; in the experiment on NCI/ADR-RES ovarian it was 3.36 µM; with HCT-15 colon it was 13 µM. The GI50 is 2.36 µM with T-47D breast, 1.81 µM with OVCAR-4 ovarian, 2.27 µM in the experiment with MDA-MB-231 breast and 3.07 µM in the experiment on MALME-3M melanoma. Further, the TGI in the experiment with RXF 393 renal is 10.7 µM; with U251 CNS, 6.1 µM; with NCI-H226 lung it was 21.3 µM; with A549 NSCLC it was 10.3 µM; in the experiment on NCI/ADR-RES ovarian, 13.3 µM; with HCT-15 colon, > 100 µM. Also, the TGI was 8.11 µM in the experiment with T-47D breast, 4.49 µM in the experiment on OVCAR-4 ovarian, 9.07 µM in the experiment with MDA-MB-231 breast and 7.22 µM with MALME-3M melanoma.
